Source: US20190274334A1 (MARS, INCORPORATED, priority 2016, published 2019)
pEC50: −log10 of the molar value. Like-named read-outs stand apart in the source and are kept apart here. *1 amine or outer side, *2 acyl side, *3 side chain or, on linkers, in order; H or OH if unused. Where a SMILES comes first, the peptide text is derived from it. [ ]: non-standard residue; d: D form. γGlu = O=C(O)[C@H](CCC(=O)[*:2])N[*:1]; Abu = CC[C@H](N)C(=O)O

Biological target: feline CaSR (f:CaSR) (Felis catus, UniProt A0ABI7YY68)
Assay: cell-based
Type: cell-based
[1] = double-injection protocol, agonist mode and PAM mode
[2] = PAM mode, CaCl2 injected at EC20, read-out: EC50 (PAM)
[3] = agonist mode, read-out: EC50 (Agonist)

Chain of feline CaSR (f:CaSR) (A0ABI7YY68 entry or part of it): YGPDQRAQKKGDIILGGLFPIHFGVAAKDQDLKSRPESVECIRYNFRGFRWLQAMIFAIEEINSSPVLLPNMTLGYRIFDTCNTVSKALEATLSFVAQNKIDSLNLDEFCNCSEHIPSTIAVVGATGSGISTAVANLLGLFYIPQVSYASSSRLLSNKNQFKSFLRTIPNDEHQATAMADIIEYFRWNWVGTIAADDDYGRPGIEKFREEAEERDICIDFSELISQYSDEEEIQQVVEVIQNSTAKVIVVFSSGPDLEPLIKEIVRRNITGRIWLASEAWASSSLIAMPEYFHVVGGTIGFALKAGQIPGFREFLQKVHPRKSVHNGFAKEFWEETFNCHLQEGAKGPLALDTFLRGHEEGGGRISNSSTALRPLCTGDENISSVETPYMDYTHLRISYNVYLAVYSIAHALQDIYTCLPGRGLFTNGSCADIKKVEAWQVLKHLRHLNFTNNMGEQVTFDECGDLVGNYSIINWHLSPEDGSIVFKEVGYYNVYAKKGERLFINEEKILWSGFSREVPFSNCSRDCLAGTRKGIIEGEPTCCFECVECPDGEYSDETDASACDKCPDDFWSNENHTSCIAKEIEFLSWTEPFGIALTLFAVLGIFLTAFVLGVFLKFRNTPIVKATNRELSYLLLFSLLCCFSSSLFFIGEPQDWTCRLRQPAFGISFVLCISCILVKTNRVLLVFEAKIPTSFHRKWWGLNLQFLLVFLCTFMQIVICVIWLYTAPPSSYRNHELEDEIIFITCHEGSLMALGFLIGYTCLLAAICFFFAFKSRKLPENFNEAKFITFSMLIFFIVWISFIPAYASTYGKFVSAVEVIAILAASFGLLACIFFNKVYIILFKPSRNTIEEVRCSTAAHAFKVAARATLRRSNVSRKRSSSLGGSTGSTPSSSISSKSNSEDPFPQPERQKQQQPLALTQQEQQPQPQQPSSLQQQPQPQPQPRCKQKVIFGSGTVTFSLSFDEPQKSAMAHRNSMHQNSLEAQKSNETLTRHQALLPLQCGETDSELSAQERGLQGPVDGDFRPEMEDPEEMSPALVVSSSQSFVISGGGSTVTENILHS

Compound	Activity Type [1]	further results
N[C@@H](CCC(=O)N[C@@H](CSCc1c[nH]c2ccccc12)C(=O)NCC(=O)O)C(=O)O [3-Glutathionyl-S-methylindole]	Agonist	–
NC[C@H]1O[C@H](O[C@H]2[C@H](O[C@@H]3O[C@H](CO)[C@@H](O)[C@H]3O)[C@@H](O)[C@H](N)C[C@@H]2N)[C@H](N)[C@@H](O)[C@@H]1O [Ribostamycin, reference compound]	Agonist	–
COc1ccc(C(CCNC(C)c2ccc(Cl)cc2)CCC(C)C)cc1 (centres unmarked) [N-(1-(4-chlorophenyl)ethyl)-3-(4-methoxyphenyl)-6-methylheptan-1-amine]	PAM	pEC50 [2]: 3.94
c1ccc(C2CCN(C3CCCc4ccccc43)C2)cc1 (centres unmarked) [3-phenyl-1-(1,2,3,4-tetrahydronaphthalen-1-yl)pyrrolidine]	PAM	–
[Gd] [Gadolinium]	Agonist	pEC50 [3]: 3.53
NC(CC(F)C(=O)O)C(=O)O (racemic) [4-Fluoro-DL-glutamic acid]	Agonist	–
COc1ccc(C(CCNC(C)c2ccc(Cl)cc2)C(C)C)cc1 (centres unmarked) [N-(1-(4-chlorophenyl)ethyl)-3-(4-methoxyphenyl)-4-methylpentan-1-amine]	PAM	pEC50 [2]: 5.84
CC(NCCC(Cc1ccccc1)c1ccco1)c1ccccc1 (centres unmarked) [3-(furan-2-yl)-4-phenyl-N-(1-phenylethyl)butan-1-amine]	PAM	pEC50 [2]: 6.17
N[C@@H](Cc1ccc(OP(=O)(O)O)cc1)C(=O)O [O-phospho-L-tyrosine]	Agonist	–
NC[C@@H]1O[C@H](O[C@H]2[C@@H](O)[C@H](O[C@@H]3[C@@H](O)[C@H](N)C[C@H](N)[C@H]3O[C@H]3O[C@H](CO)[C@@H](O)[C@H](O)[C@H]3N)O[C@@H]2CO)[C@H](N)[C@@H](O)[C@@H]1O [Paromomycin, reference compound]	Agonist	–
N[C@@H](CP(=O)(O)O)C(=O)O (stereo in doubt) [2-Amino-3-phosphonopropionic acid]	Agonist	–
CC(C)Oc1ccc(C(CCNC(C)c2ccc(Cl)cc2)C(C)C)cc1 (centres unmarked) [N-(1-(4-chlorophenyl)ethyl)-3-(4-isopropoxyphenyl)-4-methylpentan-1-amine]	PAM	pEC50 [2]: 3.87
CC[C@H](NC(=O)CC[C@H](N)C(=O)O)C(=O)O	Agonist	–
N[C@@H](CCC(=O)N[C@@H](Cc1ccccc1)C(=O)O)C(=O)O [γ-Glu-Phe]	Agonist	pEC50 [3]: 2.63
N[C@@H](CCCC(=O)O)C(=O)O [L-2-Aminoadipic acid]	Agonist	–
NCCCNCCCCNCCCN [Spermine]	–	Activity Type: Agonist
[Pr] [Praseodymium]	Agonist	pEC50 [3]: 3.40
Cc1ccc(C(CCNC(C)c2cccs2)c2ccco2)cc1 (centres unmarked) [3-(furan-2-yl)-N-(1-(thiophen-2-yl)ethyl)-3-(p-tolyl)propan-1-amine]	PAM	pEC50 [2]: 5.65
NC(=O)[C@@H](N)CCC(=O)O [L-Isoglutamine]	Agonist	–
CC(NCCC(Cc1ccccc1)c1ccco1)c1ccc(Cl)cc1 (centres unmarked) [N-(1-(4-chlorophenyl)ethyl)-3-(furan-2-yl)-4-phenylbutan-1-amine]	PAM	pEC50 [2]: 5.40
[Mg] [Magnesium]	Agonist	–

Compound	Activity Type [1]	further results
CC(C)[C@H](NC(=O)CC[C@H](N)C(=O)O)C(=O)O [γ-Glu-Val]	Agonist	–
N[C@@H](CCC(=O)N[C@@H](CS)C(=O)O)C(=O)O [H-Glu(Cys-OH)—OH]	–	Activity Type: Agonist
NC(CC(C(=O)O)C(=O)O)C(=O)O (racemic) [γ-Carboxy-DL-glutamic acid]	–	Activity Type: Agonist
C[C@@H](NCc1cc2ccccc2[nH]1)c1cccc2ccccc12 [Calindol, reference compound]	PAM	–
Cc1ccc(C2(CCNC(C)c3ccc(Cl)cc3)CCOC(C)(C)C2)cc1 (centres unmarked) [1-(4-chlorophenyl)-N-(2-(2,2-dimethyl-4-(p-tolyl)tetrahydro-2H-pyran-4-yl)ethyl)ethanamine]	PAM	–
CC(NCC1CCCN(C)C1c1cccs1)c1cc(Cl)c(N)c(Cl)c1 (centres unmarked) [2,6-dichloro-4-(1-(((1-methyl-2-(thiophen-2-yl)piperidin-3-yl)methyl)amino)ethyl)aniline]	PAM	pEC50 [2]: 5.06
N[C@@H](CC(=O)N[C@@H](Cc1ccccc1)C(=O)O)C(=O)O [H-Asp(Phe-OH)—OH]	Agonist	–
Cc1ccc(C(C)NC(C)c2cc3ccccc3[nH]2)cc1C (centres unmarked) [N-(1-(1H-indol-2-yl)ethyl)-1-(3,4-dimethylphenyl)ethanamine]	PAM	–
COc1ccccc1C(CCNC(C)c1ccc(Cl)cc1)c1ccc(OC(C)C)cc1 (centres unmarked) [N-(1-(4-chlorophenyl)ethyl)-3-(4-isopropoxyphenyl)-3-(2-methoxyphenyl)propan-1-amine]	PAM	pEC50 [2]: 6.15
Geneticin [reference compound]	Agonist	–
N[C@@H](CCS(=O)(=O)O)C(=O)O [L-Homocysteic acid]	Agonist	–
CC(C)Oc1ccc(C(CCNC(C)c2ccc(Cl)cc2)c2ccccc2)cc1 (centres unmarked) [N-(1-(4-chlorophenyl)ethyl)-3-(4-isopropoxyphenyl)-3-phenylpropan-1-amine]	PAM	pEC50 [2]: 5.35
COC(=O)C[C@H](N)C(=O)O [L-Aspartic acid beta-methyl ester]	Agonist	–
COc1cc(C(O)(c2nc3ccccc3s2)C(F)(F)F)c(OC)cc1N (centres unmarked) [1-(4-amino-2,5-dimethoxyphenyl)-1-(benzo[d]thiazol-2-yl)-2,2,2-trifluoroethanol]	PAM	pEC50 [2]: 5.62
CSCC[C@H](NC(=O)CC[C@H](N)C(=O)O)C(=O)O [H-Glu(Met-OH)—OH]	Agonist	–
N[C@@H](CCC(=O)NCC(=O)O)C(=O)O [H-Glu(Gly-OH)—OH]	Agonist	–
Tobramycin [reference compound]	PAM	–
COC(=O)C(N)CC(=O)O (racemic) [DL-Aspartic acid alpha-methyl ester]	–	Activity Type: Agonist
CC(NC1CCc2c(F)cc(Br)cc21)c1ccncc1 (centres unmarked) [6-bromo-4-fluoro-N-(1-(pyridin-4-yl)ethyl)-2,3-dihydro-1H-inden-1-amine]	PAM	–
NCCCCNCCCN [Spermidine]	Agonist	–
CC(C)[C@H](NC(=O)CC[C@H](N)C(=O)O)C(=O)NCC(=O)O [γ-Glu-Val-Gly]	Agonist	pEC50 [3]: 2.37

Compound	Activity Type [1]	further results
N[C@]1(C(=O)O)C[C@H](C(=O)O)C1 [(1s,3s)-1-aminocyclobutane-1,3-dicarboxylic acid]	–	Activity Type: Agonist
Terbium	Agonist	pEC50 [3]: 3.76
CC[C@H](NC(=O)CC[C@H](N)C(=O)O)C(=O)NCC(=O)O [Ophthalmic Acid] (γGlu-[Abu]-Gly-OH)	Agonist	pEC50 [3]: 2.58
N[C@@H](CCC(=O)N[C@@H](Cc1ccc(O)cc1)C(=O)O)C(=O)O [γ-Glu-Tyr]	Agonist	–
N[C@@H](CCC(=O)N[C@@H](Cc1c[nH]c2ccccc12)C(=O)O)C(=O)O [H-Glu(Trp-OH)—OH]	Agonist	–
[Ba] [Barium]	Agonist	pEC50 [3]: 2.93
CN[C@@H]1[C@@H](O)[C@@H](O[C@@H]2[C@@H](O)[C@H](O[C@H]3OC(CN)=CC[C@H]3N)[C@@H](N)C[C@H]2N)OC[C@]1(C)O [Sisomicin, reference compound]	Agonist	–
N[C@@H](CS(=O)(=O)O)C(=O)O [L-Cysteic acid]	Agonist	–
N[C@@H](C[C@H](O)C(=O)O)C(=O)O [2S,4S-γ-Hydroxy-L-glutamic acid]	Agonist	–
NC(CCCCC(=O)O)C(=O)O (racemic) [(±)-2-Aminopimelic acid]	–	Activity Type: Agonist
C[C@H](NC(=O)C[C@H](N)C(=O)O)C(=O)O [H-Asp(Ala-OH)—OH]	Agonist	–
CC(NCCC(c1ccccc1)c1ccco1)c1ccccc1 (centres unmarked) [3-(furan-2-yl)-3-phenyl-N-(1-phenylethyl)propan-1-amine]	PAM	pEC50 [2]: 6.34
CC(C)CCC(CCNC(C)c1ccc(Cl)cc1)c1ccc(OC(C)C)cc1 (centres unmarked) [N-(1-(4-chlorophenyl)ethyl)-3-(4-isopropoxyphenyl)-6-methylheptan-1-amine]	PAM	pEC50 [2]: 3.76
Cc1ccc(C(CCNC(C)c2ccc(Cl)cc2)c2ccco2)cc1 (centres unmarked) [N-(1-(4-chlorophenyl)ethyl)-3-(furan-2-yl)-3-(p-tolyl)propan-1-amine]	PAM	pEC50 [2]: 5.43
NC[C@@H]1O[C@H](O[C@H]2[C@@H](O)[C@H](O[C@@H]3[C@@H](O)[C@H](N)C[C@H](N)[C@H]3O[C@H]3O[C@H](CN)[C@@H](O)[C@H](O)[C@H]3N)O[C@@H]2CO)[C@H](N)[C@@H](O)[C@@H]1O [Neomycin, reference compound]	–	Activity Type: Agonist EC50 1.87 mM; pEC50: 2.73
CC(C)C[C@H](NC(=O)CC[C@H](N)C(=O)O)C(=O)O [H-Glu(Leu-OH)—OH]	Agonist	–
CNC(C)[C@@H]1CC[C@@H](N)[C@@H](O[C@H]2[C@H](O)[C@@H](O[C@H]3OC[C@](C)(O)[C@H](NC)[C@H]3O)[C@H](N)C[C@@H]2N)O1 (some centres unmarked) [Gentamicin, reference compound]	Agonist	pEC50 [3]: 3.00
N[C@@H](CCC(=O)N[C@@H](CS)C(=O)NCC(=O)O)C(=O)O [Glutathione]	–	Activity Type: Agonist EC 50 6.39 mM
N[C@@H](CC(=O)O)C(=O)O [L-Aspartic acid]	–	Activity Type: Agonist EC50 4.11 mM
NC(=O)CC[C@H](NC(=O)CC[C@H](NC(=O)CC[C@H](N)C(=O)O)C(=O)O)C(=O)O [H-Glu(Glu(Gln-OH)—OH)—OH]	Agonist	–
Cc1ccc(C(CCNC(C)c2ccccc2)c2ccco2)cc1 (centres unmarked) [3-(furan-2-yl)-N-(1-phenylethyl)-3-(p-tolyl)propan-1-amine]	PAM	pEC50 [2]: 6.12
